According to patent publication US8859557B2, “Substituted oxindole derivatives and their use as vasopressin receptor ligands” (Abbott GmbH & Co. KG, priority 2006, dated 2014):
Where a name gives a salt, the structure may show the parent alone.

Key:
[1] = molecular target: T1, recombinant human oxytocin receptors (Homo sapiens, UniProt P30559); test: Oxytocin receptor binding assay; details: selectivity for V1b over oxytocin receptor, quotient of Ki values
T1 construct: expressed in transfected cells; host or cells: HEK-293, transient expression; lysed and homogenized cells
T1 sequence (P30559 1-389): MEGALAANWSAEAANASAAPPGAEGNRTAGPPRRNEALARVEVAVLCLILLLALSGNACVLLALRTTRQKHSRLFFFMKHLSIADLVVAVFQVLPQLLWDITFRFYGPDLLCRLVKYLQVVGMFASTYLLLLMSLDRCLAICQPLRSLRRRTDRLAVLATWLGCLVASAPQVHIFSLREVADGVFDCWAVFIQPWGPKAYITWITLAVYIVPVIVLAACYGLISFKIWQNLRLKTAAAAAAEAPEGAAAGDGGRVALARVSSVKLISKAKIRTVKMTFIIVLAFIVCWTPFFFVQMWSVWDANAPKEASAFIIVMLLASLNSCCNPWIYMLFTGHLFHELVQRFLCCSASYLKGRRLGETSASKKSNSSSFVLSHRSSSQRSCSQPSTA
Experimental: Oxytocin Receptor Binding Assay
Confluent HEK-293 cells with transiently expressing recombinant human oxytocin receptors were centrifuged at 750×g and at room temperature for 5 minutes. The residue was taken up in ice-cold lysis buffer (50 mM Tris-HCl, 10% glycerol, pH 7.4 and Roche Complete Protease Inhibitor) and subjected to an osmotic shock at 4° C. for 20 minutes. The lyzed cells were then centrifuged at 750×g and at 4° C. for 20 minutes, the residue was taken up in incubation buffer, and aliquots of 10^7 cells/ml were prepared. The aliquots were frozen at −80° C. until used.
On the day of the experiment, the cells were thawed, diluted with incubation buffer and homogenized using a Multipette Combitip (Eppendorf, Hamburg). […] The nonspecific binding was determined with 10^−6 M oxytocin (Bachem AG, H2510). Determinations in triplicate were set up. Bound and free radioligand were separated by filtration under vacuum with Whatman GF/B glass fibre filters using a Skatron cell harvester 7000. The bound radioactivity was determined by liquid scintillation measurement in a Tricarb beta counter, model 2000 or 2200CA (Packard).

[2] = molecular target: T2, human vasopressin V1b receptor (Homo sapiens, UniProt P47901); test: Vasopressin V1b receptor binding assay; details: displacement of 3H-AVP, membranes of CHO-K1 cells with human V1b receptor
T2 construct: expressed in transfected cells; host or cells: CHO-K1 (cell line hV1b-3H2_CHO), membrane preparation
T2 sequence (P47901 1-424): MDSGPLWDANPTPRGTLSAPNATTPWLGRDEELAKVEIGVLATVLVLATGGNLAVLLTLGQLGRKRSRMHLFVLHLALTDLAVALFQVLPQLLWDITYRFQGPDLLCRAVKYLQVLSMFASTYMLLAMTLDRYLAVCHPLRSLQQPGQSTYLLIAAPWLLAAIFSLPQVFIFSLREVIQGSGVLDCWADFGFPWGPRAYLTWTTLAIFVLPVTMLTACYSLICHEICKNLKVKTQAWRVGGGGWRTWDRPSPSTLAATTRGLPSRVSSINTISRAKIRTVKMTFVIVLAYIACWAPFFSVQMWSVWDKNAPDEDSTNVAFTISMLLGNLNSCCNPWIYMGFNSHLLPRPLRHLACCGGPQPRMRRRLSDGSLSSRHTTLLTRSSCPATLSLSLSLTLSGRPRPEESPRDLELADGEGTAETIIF
Experimental: Methods for Determining the Biological Activity Vasopressin V1b Receptor Binding Assay: Substances:
This series of DMSO predilutions was diluted 1:10 with assay buffer. The substance concentration was again diluted 1:5 in the assay mixture (2% DMSO in the mixture).
All determinations were carried out as triplicate determinations.

[3] = molecular target: human vasopressin V1a receptor (Homo sapiens, UniProt P37288); test: Vasopressin V1a receptor binding assay; details: selectivity for V1b over V1a, quotient of Ki values
Sequence of human vasopressin V1a receptor (P37288 whole entry): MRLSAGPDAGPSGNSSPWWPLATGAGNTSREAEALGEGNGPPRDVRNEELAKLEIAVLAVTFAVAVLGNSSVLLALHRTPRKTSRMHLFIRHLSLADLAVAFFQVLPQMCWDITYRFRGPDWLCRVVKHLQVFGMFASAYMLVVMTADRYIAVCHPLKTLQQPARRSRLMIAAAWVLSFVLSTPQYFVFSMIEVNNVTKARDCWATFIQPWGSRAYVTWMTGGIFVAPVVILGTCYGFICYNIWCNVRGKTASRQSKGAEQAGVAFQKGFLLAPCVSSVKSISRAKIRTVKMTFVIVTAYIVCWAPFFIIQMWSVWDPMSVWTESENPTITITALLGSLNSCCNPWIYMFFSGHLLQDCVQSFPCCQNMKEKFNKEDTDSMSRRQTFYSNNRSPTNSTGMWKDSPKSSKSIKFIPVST

[4] = Determination of the microsomal half-life / microsomal clearance (human); assay type: in vitro ADME; details: pH 7.4; human liver microsomes, 0.5 μM test substance, 0.25 mg microsomal protein/ml; read-out: Human Mikrosomal Clearance
Experimental: The metabolic stability of a compound can be determined, for example, by incubating a solution of this compound with liver microsomes from particular species (for example rat, dog or human) and determining the half-life of the compound under these conditions (RS Obach, Curr Opin Drug Discov Devel. 2001, 4, 36-44). It is possible to conclude from an observed larger half-life that the metabolic stability of the compound is improved. The stability in the presence of human liver microsomes is of particular interest since it makes it possible to predict the metabolic degradation of the compound in the human liver. Compounds with increased metabolic stability (determined in the liver microsome test) are therefore probably also degraded more slowly in the liver. The slower metabolic degradation in the liver can lead to higher and/or longer-lasting concentrations (effective levels) of the compound in the body, so that the elimination half-life of the compounds according to the invention is increased. Increased and/or longer-lasting effective levels may lead to a better efficacy of the compound in the treatment or prophylaxis of various vasopressin-dependent diseases. An improved metabolic stability may additionally lead to an increased bioavailability after oral administration, because the compound is subjected, after being absorbed in the intestine, to less metabolic degradation in the liver (so-called first pass effect). An increased oral bioavailability may, because the concentration (effective level) of the compound is increased, lead to a better efficacy of the compound after oral administration.
Determination of the Microsomal Half-Life:
The metabolic stability of the compounds of the invention was determined in the following assay.
The test substances are incubated in a concentration of 0.5 μM as follows:
0.5 μM test substance is preincubated together with liver microsomes of various species (rat, human or other species) (0.25 mg of microsomal protein/ml) in 0.05M potassium phosphate buffer pH 7.4 in microtitre plates at 37° C. for 5 min. The reaction is started by adding NADPH (1 mg/ml). 50 μl aliquots are taken after 0, 5, 10, 15, 20 and 30 min, and the reaction is stopped immediately with the same volume of acetonitrile and cooled down. The samples are frozen until analyzed. Using MSMS, the remaining concentration of undegraded test substance is determined. From the […] of the test substance signal/time unit curve, the half-life (T½) is determined, where the half-life of the test substance can be calculated, assuming first order kinetics, from the decrease in the concentration of the compound with time. The microsomal clearance (mCl) is calculated as mCl=In2/T½/(content of microsomal protein in mg/ml)×1000 [ml/min/mg] (modified according to the literature references: Di, The Society for Biomoleculaur Screening, 2003, 453-462; Obach, DMD, 1999 vol 27. N 11, 1350-1359).

| SMILES | Ki(h-OT)/Ki(h-V1b) [1] | Ki [2] | Ki(h-V1a)/Ki(h-V1b) [3] | microsomal CLint at 0.5 μM [4] |
| --- | --- | --- | --- | --- |
| CCOc1ncccc1C1(NC(=O)N2CCC(C3CCN(CC)CC3)CC2)C(=O)N(S(=O)(=O)c2ccc(OC)cc2OC)c2ccc(C#N)cc21.O=C(O)C(F)(F)F (racemic) [Example 67, N-[5-Cyano-1-[(2,4-dimethoxyphenyl)sulphonyl]-3-(2-ethoxypyridin-3-yl)-2-oxo-2,3-dihydro-1H-indol-3-yl]-1′-ethyl-4,4′-bipiperidine-1-carboxamide trifluoroacetate] | +++ (>50) | < 10 nM | +++ (>100) | – |
| CCOc1ccccc1S(=O)(=O)N1C(=O)C(NC(=O)N2CCN(C3CCN(C)CC3)CC2)(c2cccnc2OCC)c2cc(C#N)ccc21.O=C(O)C(F)(F)F (racemic) [Example 3, N-[5-Cyano-1-[(2-ethoxyphenyl)sulphonyl]-3-(2-ethoxypyridin-3-yl)-2-oxo-2,3-dihydro-1H-indol-3-yl]-4-(1-methylpiperidin-4-yl)piperazine-1-carboxamide trifluoroacetate] | +++ (>50) | 10 to 50 nM | +++ (>100) | – |
| CCOc1ncccc1C1(NC(=O)N2CCC(N3CCN(C)CC3)CC2)C(=O)N(S(=O)(=O)c2ccccc2)c2ccc(C#N)cc21 (racemic) [Example 34, N-[5-Cyano-3-(2-ethoxypyridin-3-yl)-2-oxo-1-(phenylsulphonyl)-2,3-dihydro-1H-indol-3-yl]-4-(4-methylpiperazin-1-yl)piperidine-1-carboxamide] | – | – | – | < 60 µL/min/mg |
| CCOc1ncccc1C1(NC(=O)N2CCC(C3CCN(C)CC3)CC2)C(=O)N(S(=O)(=O)c2ccc(OC)cc2OC)c2ccc(C#N)cc21.O=C(O)C(F)(F)F (single isomer, unassigned) [Example 61B, (−)-N-[5-Cyano-1-[(2,4-dimethoxyphenyl)sulphonyl)-3-(2-ethoxypyridin-3-yl)-2-oxo-2,3-dihydro-1H-indol-3-yl]-1′-methyl-4,4′-bipiperidine-1-carboxamide trifluoroacetate] | +++ (>50) | – | +++ (>100) | – |
| CCOc1ncccc1C1(NC(=O)N2CCC(C3CCN(C)CC3)CC2)C(=O)N(S(=O)(=O)c2ccc(OC)cc2OC)c2ccc(C#N)cc21 (racemic) [Example 61, N-[5-Cyano-1-[(2,4-dimethoxyphenyl)sulphonyl]-3-(2-ethoxypyridin-3-yl)-2-oxo-2,3-dihydro-1H-indol-3-yl]-1′-methyl-4,4′-bipiperidine-1-carboxamide] | +++ (>50) | < 10 nM | +++ (>100) | – |
| CCOc1ncccc1[C@]1(NC(=O)N2CCC(C3CCN(C)CC3)CC2)C(=O)N(S(=O)(=O)c2ccc(OC)cc2OC)c2ccc(C#N)cc21 (single isomer, unassigned) [Example 61B, (−)-N-[5-Cyano-1-[(2,4-dimethoxyphenyl)sulphonyl)-3-(2-ethoxypyridin-3-yl)-2-oxo-2,3-dihydro-1H-indol-3-yl]-1′-methyl-4,4′-bipiperidine-1-carboxamide trifluoroacetate] | – | < 10 nM | – | < 60 µL/min/mg |
| CCOc1ncccc1C1(NC(=O)N2CCN(C3CCN(C)CC3)CC2)C(=O)N(S(=O)(=O)c2ccccc2OC)c2ccc(C#N)cc21 (racemic) [Example 2, N-{5-Cyano-3-(2-ethoxypyridin-3-yl)-1-[(2-methoxyphenyl)sulphonyl]-2-oxo-2,3-dihydro-1H-indol-3-yl}-4-(1-methylpiperidin-4-yl)piperazine-1-carboxamide] | +++ (>50) | 10 to 50 nM | +++ (>100) | – |
| CCCN1CCN(C2CCN(C(=O)NC3(c4cccnc4OCC)C(=O)N(S(=O)(=O)c4ccc(OC)cc4OC)c4ccc(C#N)cc43)CC2)CC1 (racemic) [Example 43, N-[5-Cyano-1-[(2,4-dimethoxyphenyl)sulphonyl]-3-(2-ethoxypyridin-3-yl)-2-oxo-2,3-dihydro-1H-indol-3-yl]-4-(4-propylpiperazin-1-yl)piperidine-1-carboxamide] | +++ (>50) | < 10 nM | +++ (>100) | – |
| CCOc1ncccc1C1(NC(=O)N2CCC(C3CCN(CC)CC3)CC2)C(=O)N(S(=O)(=O)c2ccc(OC)cc2OC)c2ccc(C#N)cc21.O=C(O)C(F)(F)F (single isomer, unassigned) [Example 67B, (−)-N-[5-Cyano-1-[(2,4-dimethoxyphenyl)sulphonyl]-3-(2-ethoxypyridin-3-yl)-2-oxo-2,3-dihydro-1H-indol-3-yl]-1′-ethyl-4,4′-bipiperidine-1-carboxamide trifluoroacetate] | +++ (>50) | < 10 nM | +++ (>100) | – |
| CCOc1ncccc1C1(NC(=O)N2CCN(C3CCN(C)CC3)CC2)C(=O)N(S(=O)(=O)c2ccc(OC)cc2)c2ccc(C#N)cc21 (racemic) [Example 5, N-[5-Cyano-3-(2-ethoxypyridin-3-yl)-1-[(4-methoxyphenyl)sulphonyl]-2-oxo-2,3-dihydro-1H-indol-3-yl]-4-(1-methylpiperidin-4-yl)piperazine-1-carboxamide] | – | – | – | < 60 µL/min/mg |
| CCOc1ncccc1C1(NC(=O)N2CCC(N3CCN(C)CC3)CC2)C(=O)N(S(=O)(=O)c2ccccc2OC)c2ccc(C#N)cc21 (racemic) [Example 32, N-[5-Cyano-3-(2-ethoxypyridin-3-yl)-1-[(2-methoxyphenyl)sulphonyl]-2-oxo-2,3-dihydro-1H-indol-3-yl]-4-(4-methylpiperazin-1-yl)piperidine-1-carboxamide] | +++ (>50) | 10 to 50 nM | + (15-50) | – |
